Patent US11214803B2, “Modulators of YAP1 expression” (Ionis Pharmaceuticals, Inc., priority 2019, dated 2022)
Strand notation (5' to 3'): a small letter for the sugar, then the base; units joined by * are phosphorothioate-linked, units joined directly phosphodiester-linked; [ ] holds rarer units or linkages, { } end groups; capitals alone tell only the bases. k = constrained ethyl (cEt); [5mC] = 5-methylcytosine; d = 2'-deoxy (DNA)

Tested on: Yap1 mRNA
Experiment: Antisense inhibition of human Yap1 in A-431 cells by cEt gapmers, single dose (Example 1, RTS4814)
Format: cell-based
Procedure: Modified oligonucleotides were designed to target a Yap1 nucleic acid and were tested for their effect on Yap1 mRNA level in vitro. The modified oligonucleotides were tested in a series of experiments that had similar culture conditions. Cultured A-431 cells at a density of 5,000 cells per well were treated using free uptake with 2,000 nM of modified oligonucleotide. After a treatment period of approximately 48 hours, RNA was isolated from the cells and Yap1 mRNA levels were measured by quantitative real-time RTPCR. Human primer probe set RTS4814 (forward sequence […], designated herein as SEQ ID NO.: 11; reverse sequence […], designated herein as SEQ ID NO.: 12; probe sequence […], designated herein as SEQ ID NO.: 13) was used to measure mRNA levels. Yap1 mRNA levels were normalized to total RNA content, as measured by RIBOGREEN®. Results are presented in the tables below as percent control of the amount of Yap1 mRNA relative to untreated control cells (% UTC). The modified oligonucleotides with percent control values marked with an asterisk (*) target the amplicon region of the primer probe set. Additional assays may be used to measure the potency and efficacy of the modified oligonucleotides targeting the amplicon region.
The newly designed modified oligonucleotides in the Tables below were designed as 3-10-3 cEt gapmers. The gapmers are 16 nucleosides in length, wherein the central gap segment comprises of ten 2′-deoxynucleosides and is flanked by wing segments on the 5′ direction and the 3′ direction comprising three nucleosides each. Each nucleoside in the 5′ wing segment and each nucleoside in the 3′ wing segment has a cEt sugar modification. The internucleoside linkages throughout each gapmer are phosphorothioate (P═S) linkages. All cytosine residues throughout each gapmer are 5-methylcytosines.
“Start site” indicates the 5′-most nucleoside to which the gapmer is targeted in the human gene sequence. “Stop site” indicates the 3′-most nucleoside to which the gapmer is targeted human gene sequence. […] Activity of the modified oligonucleotide may be defined in a different experiment.

[1] = Table 2, A-431 cells, free uptake, 2,000 nM, approximately 48 hours, RTS4814, Yap1 mRNA relative to untreated control cells
[2] = Table 1, A-431 cells, free uptake, 2,000 nM, approximately 48 hours, RTS4814, Yap1 mRNA relative to untreated control cells
[3] = A-431 cells, 5,000 cells per well, free uptake, 2,000 nM modified oligonucleotide, approx. 48 hours, RTS4814, normalized to RIBOGREEN, Table 3

With “715473 (antisense kT*k[5mC]*kT*dT*dT*dA*dT*d[5mC]*dT*dA*dG*d[5mC]*dT*kT*kG*kG) [Compound 715473]” the “YAP1 (% UTC)” value [1] was 32 % UTC.
“715592 (kT*kT*k[5mC]*dT*dT*dT*dG*dG*d[5mC]*dA*dG*dA*dG*kA*kT*kA; antisense) [Compound 715592]” was tested, and the “YAP1 (% UTC)” value [2] was 89 % UTC.
“715448 (antisense k[5mC]*kT*k[5mC]*dA*dA*dT*dT*d[5mC]*d[5mC]*dT*dG*dA*dG*kA*k[5mC]*kA) [Compound 715448]” was tested, and the “YAP1 (% UTC)” value [2] was 97 % UTC.
In the case of “715532 (kT*kA*kA*d[5mC]*dA*dA*d[5mC]*d[5mC]*dT*dG*dG*dT*dT*kT*kG*kT; antisense) [Compound 715532]”, the “YAP1 (% UTC)” value [2] is reported as 91 % UTC.
With “715518 (kT*kT*kT*dG*dG*dG*d[5mC]*dA*dA*dA*dG*dT*dT*k[5mC]*k[5mC]*kT; antisense) [Compound 715518]” the “YAP1 (% UTC)” value [1] was 60 % UTC.
With “715492 (antisense kG*k[5mC]*kT*dA*dG*d[5mC]*dT*dG*dG*dT*dG*d[5mC]*d[5mC]*kA*k[5mC]*kT) [Compound 715492]” the “YAP1 (% UTC)” value [3] was 76 % UTC.
In the case of “715544 (k[5mC]*kA*kA*d[5mC]*dT*dA*d[5mC]*dT*dT*dG*dA*dA*dG*kA*kA*k[5mC]; antisense) [Compound 715544]”, the “YAP1 (% UTC)” value [2] is reported as 128 % UTC.
In the case of “715517 (kG*kG*k[5mC]*d[5mC]*dT*dA*dT*dG*dA*dG*dT*d[5mC]*dA*kA*k[5mC]*k[5mC]; antisense) [Compound 715517]”, the “YAP1 (% UTC)” value [2] is reported as 109 % UTC.
“715419 (kG*kA*k[5mC]*d[5mC]*dA*dG*dA*dA*dG*dA*dT*dG*dT*k[5mC]*kT*kT; antisense) [Compound 715419]” was tested, and the “YAP1 (% UTC)” value [1] was 107 % UTC.
For “715545 (kA*k[5mC]*k[5mC]*dA*dA*d[5mC]*dT*dA*d[5mC]*dT*dT*dG*dA*kA*kG*kA; antisense) [Compound 715545]”, the “YAP1 (% UTC)” value [1] was 87 % UTC.
In the case of “715480 (antisense kG*kG*kA*dA*dA*d[5mC]*d[5mC]*dA*dT*dT*dA*dT*dT*kA*k[5mC]*kT) [Compound 715480]”, the “YAP1 (% UTC)” value [3] is reported as 23 % UTC.
For “715409 (k[5mC]*kA*kG*dT*dA*d[5mC]*dT*dG*dG*d[5mC]*d[5mC]*dT*dG*kT*k[5mC]*kG; antisense) [Compound 715409]”, the “YAP1 (% UTC)” value [2] was 76 % UTC.
In the case of “715482 (antisense k[5mC]*kT*kT*dT*dG*dG*dA*dA*dA*d[5mC]*d[5mC]*dA*dT*kT*kA*kT) [Compound 715482]”, the “YAP1 (% UTC)” value [1] is reported as 58 % UTC.
For “715479 (antisense kA*kA*kA*d[5mC]*d[5mC]*dA*dT*dT*dA*dT*dT*dA*d[5mC]*kT*k[5mC]*k[5mC]) [Compound 715479]”, the “YAP1 (% UTC)” value [1] was 38 % UTC.
With “715477 (antisense kA*kG*kA*d[5mC]*dA*d[5mC]*dA*dT*dA*d[5mC]*dT*d[5mC]*dT*kA*kG*kT) [Compound 715477]” the “YAP1 (% UTC)” value [3] was 61 % UTC.
In the case of “715554 (kT*kA*kT*dT*d[5mC]*dA*dG*d[5mC]*dA*dG*d[5mC]*dT*dT*kA*kT*kA; antisense) [Compound 715554]”, the “YAP1 (% UTC)” value [1] is reported as 93 % UTC.
For “715403 (kG*kA*kA*dG*dG*dA*dG*dT*d[5mC]*dG*dG*dG*d[5mC]*kA*kG*k[5mC]; antisense) [Compound 715403]”, the “YAP1 (% UTC)” value [2] was 72 % UTC.
With “715489 (antisense kA*kA*k[5mC]*dT*dA*dT*dT*dA*d[5mC]*dT*dT*d[5mC]*dA*kT*kA*kG) [Compound 715489]” the “YAP1 (% UTC)” value [3] was 90 % UTC.
With “715608 (antisense kA*kA*kT*dT*dG*dT*dA*dT*d[5mC]*d[5mC]*dA*dG*dA*k[5mC]*kA*kT) [Compound 715608]” the “YAP1 (% UTC)” value [1] was 100 % UTC.
With “715411 (kG*k[5mC]*kA*dT*d[5mC]*dA*dG*dT*dA*d[5mC]*dT*dG*dG*k[5mC]*k[5mC]*kT; antisense) [Compound 715411]” the “YAP1 (% UTC)” value [3] was 94 % UTC.
With “715461 (antisense kT*k[5mC]*kA*dT*d[5mC]*dT*d[5mC]*dG*dA*dG*dA*dG*dT*kG*kA*kT) [Compound 715461]” the “YAP1 (% UTC)” value [1] was 153 % UTC.
With “715447 (antisense k[5mC]*kA*kA*dT*dT*d[5mC]*d[5mC]*dT*dG*dA*dG*dA*d[5mC]*kA*kT*k[5mC]) [Compound 715447]” the “YAP1 (% UTC)” value [3] was 81 % UTC.
In the case of “715609 (antisense kT*kG*kT*dG*dT*dA*dG*dG*d[5mC]*dT*dG*dA*d[5mC]*kT*kT*kA) [Compound 715609]”, the “YAP1 (% UTC)” value [3] is reported as 56 % UTC.
For “715551 (kA*kT*kA*dG*dG*dA*dA*dG*dT*dT*dG*dT*dT*kG*kA*k[5mC]; antisense) [Compound 715551]”, the “YAP1 (% UTC)” value [1] was 82 % UTC.
In the case of “715471 (antisense kT*kA*kT*d[5mC]*dT*dA*dG*d[5mC]*dT*dT*dG*dG*dT*kG*kG*k[5mC]) [Compound 715471]”, the “YAP1 (% UTC)” value [3] is reported as 36 % UTC.
For “715470 (antisense kT*k[5mC]*kT*dA*dG*d[5mC]*dT*dT*dG*dG*dT*dG*dG*k[5mC]*kA*kG) [Compound 715470]”, the “YAP1 (% UTC)” value [1] was 83 % UTC.
For “715434 (antisense kT*k[5mC]*kT*dT*dG*dT*dT*d[5mC]*dT*dT*dA*dT*dG*kG*kT*kT) [Compound 715434]”, the “YAP1 (% UTC)” value [1] was 31 % UTC.
In the case of “715569 (k[5mC]*kA*kA*dA*dG*dG*dT*dA*dG*dG*dA*dT*dA*kA*kA*kT; antisense) [Compound 715569]”, the “YAP1 (% UTC)” value [1] is reported as 122 % UTC.
For “715629 (antisense kG*kA*kG*d[5mC]*d[5mC]*dT*dA*d[5mC]*d[5mC]*dT*dG*dA*d[5mC]*kA*kT*kT) [Compound 715629]”, the “YAP1 (% UTC)” value [1] was 112 % UTC.
“715524 (kA*k[5mC]*kT*dT*dT*dA*dA*dG*dA*dA*dG*dT*dA*kT*k[5mC]*kT; antisense) [Compound 715524]” was tested, and the “YAP1 (% UTC)” value [1] was 93 % UTC.
In the case of “715607 (antisense kT*k[5mC]*kA*d[5mC]*d[5mC]*dA*dT*dA*dG*d[5mC]*dA*d[5mC]*dA*kG*kA*kA) [Compound 715607]”, the “YAP1 (% UTC)” value [2] is reported as 116 % UTC.
For “715575 (k[5mC]*k[5mC]*kT*dT*dT*dA*d[5mC]*d[5mC]*dA*dA*dA*dA*d[5mC]*kG*kA*kG; antisense) [Compound 715575]”, the “YAP1 (% UTC)” value [1] was 134 % UTC.
In the case of “715497 (antisense kA*kA*k[5mC]*d[5mC]*d[5mC]*dT*dT*dG*dA*dA*dA*dA*dT*kA*kA*kG) [Compound 715497]”, the “YAP1 (% UTC)” value [1] is reported as 155 % UTC.
“715513 (kG*k[5mC]*kG*dG*dA*dG*dG*d[5mC]*dG*d[5mC]*dG*d[5mC]*dG*k[5mC]*kA*kT; antisense) [Compound 715513]” was tested, and the “YAP1 (% UTC)” value [3] was 125 % UTC.
In the case of “715596 (antisense kG*kT*kT*d[5mC]*dA*dT*dG*dG*d[5mC]*dT*dG*dA*dA*kA*kT*kG) [Compound 715596]”, the “YAP1 (% UTC)” value [1] is reported as 104 % UTC.
“715595 (antisense kT*k[5mC]*kA*dT*dG*dG*d[5mC]*dT*dG*dA*dA*dA*dT*kG*kA*kA) [Compound 715595]” was tested, and the “YAP1 (% UTC)” value [2] was 104 % UTC.
With “715476 (antisense kA*kA*kA*dG*d[5mC]*dT*dT*dT*d[5mC]*dT*dT*dT*dA*kT*k[5mC]*kT) [Compound 715476]” the “YAP1 (% UTC)” value [1] was 84 % UTC.
In the case of “715559 (k[5mC]*kT*kG*d[5mC]*d[5mC]*dA*dT*dT*dT*dA*dA*dG*dA*kA*kA*kT; antisense) [Compound 715559]”, the “YAP1 (% UTC)” value [2] is reported as 114 % UTC.
With “715408 (kG*k[5mC]*kG*dG*d[5mC]*dT*dT*dG*dA*dA*dG*dA*dA*kG*kG*kA; antisense) [Compound 715408]” the “YAP1 (% UTC)” value [3] was 60 % UTC.
With “715499 (antisense kT*kA*kT*dG*dA*dA*d[5mC]*d[5mC]*d[5mC]*dT*dT*dG*dA*kA*kA*kA) [Compound 715499]” the “YAP1 (% UTC)” value [2] was 126 % UTC.
For “715593 (antisense kA*kT*kT*dT*d[5mC]*dT*dT*dT*dG*dG*d[5mC]*dA*dG*kA*kG*kA) [Compound 715593]”, the “YAP1 (% UTC)” value [1] was 60 % UTC.
With “715597 (antisense k[5mC]*kT*kG*dG*dT*dT*d[5mC]*dA*dT*dG*dG*d[5mC]*dT*kG*kA*kA) [Compound 715597]” the “YAP1 (% UTC)” value [3] was 89 % UTC.
With “715574 (kT*kA*k[5mC]*d[5mC]*dA*dA*dA*dA*d[5mC]*dG*dA*dG*dG*kG*kT*k[5mC]; antisense) [Compound 715574]” the “YAP1 (% UTC)” value [2] was 118 % UTC.
In the case of “715511 (antisense kT*k[5mC]*k[5mC]*dT*dG*dA*d[5mC]*dA*dT*dT*dT*dT*dG*kG*kA*kG) [Compound 715511]”, the “YAP1 (% UTC)” value [2] is reported as 107 % UTC.
“715456 (antisense kA*kG*kT*dG*dA*dT*dA*dG*dG*dT*dG*d[5mC]*d[5mC]*kA*k[5mC]*kT) [Compound 715456]” was tested, and the “YAP1 (% UTC)” value [3] was 96 % UTC.
In the case of “715402 (kA*kG*kG*dA*dG*dT*d[5mC]*dG*dG*dG*d[5mC]*dA*dG*k[5mC]*kT*kT; antisense) [Compound 715402]”, the “YAP1 (% UTC)” value [3] is reported as 59 % UTC.
With “715463 (antisense k[5mC]*kT*kG*dT*dA*dG*d[5mC]*dT*dG*d[5mC]*dT*d[5mC]*dA*kT*kG*k[5mC]) [Compound 715463]” the “YAP1 (% UTC)” value [2] was 73 % UTC.
